Source: the CheMixHub ionic liquid set

Test: xn = mol fraction of the nth substance listed

CCCC(=O)O + CC(CC(C)(C)C)CP(=O)([O-])CC(C)CC(C)(C)C.CCCCCCCCCCCCCC[P+](CCCCCC)(CCCCCC)CCCCCC + O
100 kPa
Details	viscosity [mPa·s]
298 K, x2 = 0.09014, x1 = 0.601	53
298 K, x2 = 0.09759, x1 = 0.6041	54
298 K, x2 = 0.1129, x1 = 0.5867	83
310 K, x2 = 0.08641, x1 = 0.594	30
310 K, x2 = 0.1138, x1 = 0.593	47
310 K, x2 = 0.1346, x1 = 0.5734	58
310 K, x2 = 0.1366, x1 = 0.07313	82
310 K, x2 = 0.1673, x1 = 0.1732	84
310 K, x2 = 0.1882, x1 = 0.4901	87
310 K, x2 = 0.1908, x1 = 0.2923	90
310 K, x2 = 0.1962, x1 = 0.4196	91
318 K, x2 = 0.08808, x1 = 0.5881	24
318 K, x2 = 0.1141, x1 = 0.5826	35
318 K, x2 = 0.1336, x1 = 0.5507	44

C[N+](C)(C)CCO.O=S(=O)([N-]S(=O)(=O)C(F)(F)F)C(F)(F)F + CC(O)CO
101 kPa
Details	viscosity [mPa·s]
313.15 K, x2 = 0	56.4
313.15 K, x2 = 0.4786	28.6
318.15 K, x2 = 0.4786	23.6
328.15 K, x2 = 0.5867	15.4
333.15 K, x2 = 0	28.6
338.15 K, x2 = 0	24.6
343.15 K, x2 = 0.2189	14.68
343.15 K, x2 = 0.3834	12.15
343.15 K, x2 = 0.8744	6.61
348.15 K, x2 = 0	19.1

CCCCCCCCCCCCCC[P+](CCCC)(CCCC)CCCC.CCCCCCCCCCCCc1ccccc1S(=O)(=O)[O-] + CCCCCCCCCCCC
101 kPa
Details	viscosity [mPa·s]
298.15 K, x1 = 0.4402	456
303.15 K, x1 = 0.4402	325
308.15 K, x1 = 0.4844	319
313.15 K, x1 = 0.354	127
313.15 K, x1 = 0.4402	180
313.15 K, x1 = 0.4844	236
318.15 K, x1 = 0.6789	596
328.15 K, x1 = 0.354	59.1
328.15 K, x1 = 0.6789	316
338.15 K, x1 = 0.354	39.1
338.15 K, x1 = 0.4844	65.1
343.15 K, x1 = 0.6789	133
353.15 K, x1 = 0.6789	86.1

CCCCCCCCCCCCOS(=O)(=O)[O-].[Na+] + CCCCCCCCCCCCCCCC[N+](C)(C)C.[Br-] + O
298.15 K, 101 kPa, frequency 0.001 MHz
Details	electrical conductivity [S/m]
x1 = 3e-08, x2 = 0	0.000305
x1 = 1.029e-05, x2 = 0	0.00434
x1 = 2.57e-05, x2 = 0	0.0104
x1 = 3.699e-05, x2 = 0	0.0155
x1 = 5.034e-05, x2 = 0	0.0213
x1 = 6.37e-05, x2 = 0	0.0264
x1 = 7.295e-05, x2 = 0	0.0301
x1 = 8.321e-05, x2 = 0	0.0349
x1 = 9.348e-05, x2 = 0	0.0392
x1 = 0.0001038, x2 = 0	0.0422
x1 = 0.000113, x2 = 0	0.0461
x1 = 0.0001212, x2 = 0	0.051
x1 = 0.0001315, x2 = 0	0.054
x1 = 0.0001418, x2 = 0	0.0567
x1 = 0.00015, x2 = 0	0.0607
x1 = 0.0001582, x2 = 0	0.0631
x1 = 0.0001665, x2 = 0	0.0649
x1 = 0.0001737, x2 = 0	0.0661
x1 = 0.000183, x2 = 0	0.0673
x1 = 0.0001944, x2 = 0	0.0683
x1 = 0.0002036, x2 = 0	0.0701
x1 = 0.000214, x2 = 0	0.0713
x1 = 0.0002222, x2 = 0	0.0737
x1 = 0.0002315, x2 = 0	0.075
x1 = 0.0002408, x2 = 0	0.0771
x1 = 0.0002521, x2 = 0	0.0792
x1 = 0.0002625, x2 = 0	0.0801
x1 = 0.0002738, x2 = 0	0.0823
x1 = 0.0002862, x2 = 0	0.0841

CCCCCCCCCCCC[N+](C)(C)C.[Br-] + CCCCCCCCCCCCCCCC[n+]1ccn(C)c1.[Cl-] + O
100 kPa, frequency 0.002 MHz
Details	electrical conductivity [S/m]
303.15 K, x2 = 0, x1 = 0.0001836	0.105
313.15 K, x2 = 0, x1 = 0.0003475	0.207
323.15 K, x2 = 0, x1 = 0.0001544	0.129

CCCCCCCCCC(=O)O + CCCCCCCCCCCCCC[P+](CCCCCC)(CCCCCC)CCCCCC.[Cl-]
100 kPa, x2 = 0.3333
Details	viscosity [mPa·s]
293 K	350
298 K	260
318 K	94
328 K	63
333 K	53
